Measured values from patent US12570655B2, “Cysteine covalent modifiers of AKT1 and uses thereof” (Terremoto Biosciences, Inc., priority 2023, dated 2026).
pIC50: −log10 of the molar value. Like-named read-outs stand apart in the source and are kept apart here.

Columns and labels:
Type in all cases: cell-based
[1] = target: T1, AKT1 E17K (Homo sapiens, UniProt P31749, E17K); experiment: Live cell AKT1 E17K target engagement by NanoBRET competitive probe displacement; conditions: HEK293 cells transfected with kinase-NanoLuciferase fusion, 2 h at 37° C.
T1 construct: expressed in transfected cells; host or cells: HEK293
In short: (§1)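 NanoLuc-kinase fusions, HEK293, transfected overnight; compound serial dilution + ATP-competitive fluorescent tracer at ~EC50; 2 h, 37 °C. Read 460/600 nm with extracellular NanoLuc inhibitor; BRET = E600/E460; IC50 by Hill fit.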

[2] = tested on: LAPC4 prostate cancer cells; experiment: Antiproliferative effects in LAPC4 cells (CellTiter Glo); conditions: LAPC4 cells (AKT1 E17K allele), read-out: LAPC4 proliferation IC50
In short: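 Luminescent ATP read-out (CellTiter Glo) after 72 h compound exposure; 1,000 cells/well in IMDM + 12% FBS + 1% P/S. IC50 by Hill equation fit of luminescence vs. log(inhibitor).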

[3] = target: T2, AKT1 WT (Homo sapiens, UniProt P31749); experiment: Live cell AKT1 WT target engagement by NanoBRET competitive probe displacement; conditions: HEK293 cells transfected with kinase-NanoLuciferase fusion, 2 h at 37° C.
T2 construct: expressed in transfected cells; host or cells: HEK293
In short: as §1

[4] = target: T3, AKT2 (Homo sapiens, UniProt P31751); experiment: Live cell AKT2 target engagement by NanoBRET competitive probe displacement; conditions: HEK293 cells transfected with kinase-NanoLuciferase fusion, 2 h at 37° C.
T3 construct: expressed in transfected cells; host or cells: HEK293
In short: as §1

T2 sequence (P31749 whole entry, the tested form may be a part): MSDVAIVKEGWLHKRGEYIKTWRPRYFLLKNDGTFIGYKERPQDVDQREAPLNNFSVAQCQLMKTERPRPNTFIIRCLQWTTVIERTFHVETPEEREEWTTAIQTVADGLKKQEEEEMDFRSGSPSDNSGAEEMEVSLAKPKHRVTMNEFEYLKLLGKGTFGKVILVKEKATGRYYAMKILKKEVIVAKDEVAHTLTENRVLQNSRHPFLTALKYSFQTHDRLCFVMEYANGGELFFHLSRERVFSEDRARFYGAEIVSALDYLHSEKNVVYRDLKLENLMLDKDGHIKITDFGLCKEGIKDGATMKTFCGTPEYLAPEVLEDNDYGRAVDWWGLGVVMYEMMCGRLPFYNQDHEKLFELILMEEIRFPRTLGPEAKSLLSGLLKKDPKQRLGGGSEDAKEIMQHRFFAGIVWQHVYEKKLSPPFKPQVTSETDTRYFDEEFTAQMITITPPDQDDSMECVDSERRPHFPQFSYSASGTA
T1 sequence (P31749 whole entry E17K, the tested form may be a part): as the sequence (P31749 whole entry, the tested form may be a part) above, with E17K counted along it
T3 sequence (P31751 whole entry, the tested form may be a part): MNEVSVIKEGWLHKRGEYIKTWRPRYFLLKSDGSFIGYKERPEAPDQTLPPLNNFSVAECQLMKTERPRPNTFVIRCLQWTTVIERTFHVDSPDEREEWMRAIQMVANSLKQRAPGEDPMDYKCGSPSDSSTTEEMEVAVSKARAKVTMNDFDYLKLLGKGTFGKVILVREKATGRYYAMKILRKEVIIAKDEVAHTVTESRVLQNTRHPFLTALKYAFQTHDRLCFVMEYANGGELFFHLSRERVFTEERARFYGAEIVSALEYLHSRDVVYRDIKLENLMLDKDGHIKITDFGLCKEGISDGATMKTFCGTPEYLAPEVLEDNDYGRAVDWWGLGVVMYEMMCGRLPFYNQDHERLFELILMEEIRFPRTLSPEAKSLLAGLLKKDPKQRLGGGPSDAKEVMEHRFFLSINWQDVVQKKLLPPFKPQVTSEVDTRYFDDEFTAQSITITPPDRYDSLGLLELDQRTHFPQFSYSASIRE

C=CC(=O)N1CCC(N[C@H]2CCc3cc(-n4c(-c5cccnc5N)nc5ccc(-c6nnc(C7CC7)s6)nc54)ccc32)CC1 [Example 320, (S)-1-(4-((5-(2-(2-aminopyridin-3-yl)-5-(5-cyclopropyl-1,3,4-thiadiazol-2-yl)-3H-imidazo[4,5-b]pyridin-3-yl)-2,3-dihydro-1H-inden-1-yl)amino)piperidin-1-yl)prop-2-en-1-one]
pIC50 [1]: 7.93 | pIC50 ([2]; Homo sapiens, LAPC4, 72 h): 7.11 | pIC50 [3]: 6.54 | pIC50 [4]: 7.34

C=C(F)C(=O)Nc1cn(C)nc1C(=O)N[C@H]1CCc2cc(-n3c(-c4cccnc4N)nc4ccc(-n5cccn5)nc43)ccc21 [Example 36, (S)-N-(5-(2-(2-aminopyridin-3-yl)-5-(1H-pyrazol-1-yl)-3H-imidazo[4,5-b]pyridin-3-yl)-2,3-dihydro-1H-inden-1-yl)-4-(2-fluoroacrylamido)-1-methyl-1H-pyrazole-3-carboxamide]
pIC50 [1]: 6.75 | pIC50 ([2]; Homo sapiens, LAPC4, 72 h): 6.27 | pIC50 [3]: 7.19 | pIC50 [4]: 6.01

C=CC(=O)N1CC2CCC(C1)C2N[C@H]1CCc2cc(-n3c(-c4cccnc4N)nc4ccc(-n5cccn5)nc43)ccc21 (stereo partly drawn) [Example 14, 1-(8-{[(1S)-5-[2-(2-aminopyridin-3-yl)-5-(pyrazol-1-yl)imidazo[4,5-b]pyridin-3-yl]-2,3-dihydro-1H-inden-1-yl]amino}-3-azabicyclo[3.2.1]octan-3-yl)prop-2-en-1-one]
pIC50 [1]: 6.36 | pIC50 ([2]; Homo sapiens, LAPC4, 72 h): 5.94 | pIC50 [3]: 7.07 | pIC50 [4]: 5.85

C=CC(=O)N1CCC(N[C@H]2CCc3cc(-n4c(-c5cccnc5N)nc5ccc(C6CC6)nc54)ccc32)C[C@H]1C (single isomer, unassigned) [Example 210, 1-((2R,4*)-4-(((S)-5-(2-(2-aminopyridin-3-yl)-5-cyclopropyl-3H-imidazo[4,5-b]pyridin-3-yl)-2,3-dihydro-1H-inden-1-yl)amino)-2-methylpiperidin-1-yl)prop-2-en-1-one]
pIC50 [1]: 7.77 | pIC50 ([2]; Homo sapiens, LAPC4, 72 h): 6.42 | pIC50 [3]: 6.04 | pIC50 [4]: 6.57

C=CC(=O)Nc1cc(O)ccc1C(=O)N[C@H]1CCc2cc(-n3c(-c4cccnc4N)nc4ccc(-n5cccn5)nc43)ccc21 [Example 70, N-[(1S)-5-[2-(2-aminopyridin-3-yl)-5-(pyrazol-1-yl)imidazo[4,5-b]pyridin-3-yl]-2,3-dihydro-1H-inden-1-yl]-4-hydroxy-2-(prop-2-enamido)benzamide]
pIC50 [1]: 6.54 | pIC50 ([2]; Homo sapiens, LAPC4, 72 h): 5.98 | pIC50 [3]: 7.08 | pIC50 [4]: 5.87

C=CC(=O)N1CCC(N[C@H]2CCc3cc(-n4c(-c5cccnc5N)nc5cc(C6CC6)cnc54)ccc32)CC1 [Example 199, 1-(4-{[(1S)-5-[2-(2-aminopyridin-3-yl)-6-cyclopropylimidazo[4,5-b]pyridin-3-yl]-2,3-dihydro-1H-inden-1-yl]amino}piperidin-1-yl)prop-2-en-1-one]
pIC50 [1]: 7.17 | pIC50 ([2]; Homo sapiens, LAPC4, 72 h): 5.62 | pIC50 [3]: 6.22 | pIC50 [4]: 6.10

C=CC(=O)N1CCC(N[C@H]2CCc3cc(-n4c(-c5cccnc5N)nc5ccc(-n6ccc(C7CCC7)n6)nc54)ccc32)CC1 [Example 283, 1-(4-{[(1S)-5-[2-(2-aminopyridin-3-yl)-5-(3-cyclobutylpyrazol-1-yl)imidazo[4,5-b]pyridin-3-yl]-2,3-dihydro-1H-inden-1-yl]amino}piperidin-1-yl)prop-2-en-1-one]
pIC50 [1]: 8.04 | pIC50 ([2]; Homo sapiens, LAPC4, 72 h): 6.08 | pIC50 [3]: 6.88 | pIC50 [4]: 7.38

C=CC(=O)N1CCC(N[C@@H]2c3ccc(-n4c(-c5cccnc5N)nc5ccc(-n6cccn6)nc54)cc3CC2F)C[C@H]1C (single isomer, unassigned) [Example 146, 1-((2R,4*)-4-(((1R,2*)-5-(2-(2-aminopyridin-3-yl)-5-(1H-pyrazol-1-yl)-3H-imidazo[4,5-b]pyridin-3-yl)-2-fluoro-2,3-dihydro-1H-inden-1-yl)amino)-2-methylpiperidin-1-yl)prop-2-en-1-one]
pIC50 [1]: 7.11 | pIC50 ([2]; 72 h): 6.35 | pIC50 [3]: 7.64 | pIC50 [4]: 5.80

C=CC(=O)N1CCC(N[C@H]2CCc3cc(-n4c(-c5cccnc5N)nc5ccc(-n6ccc(C)n6)nc54)ccc32)CC1 [Example 243, 1-(4-{[(1S)-5-[2-(2-aminopyridin-3-yl)-5-(3-methylpyrazol-1-yl)imidazo[4,5-b]pyridin-3-yl]-2,3-dihydro-1H-inden-1-yl]amino}piperidin-1-yl)prop-2-en-1-one]
pIC50 [1]: 7.76 | pIC50 ([2]; Homo sapiens, LAPC4, 72 h): 6.82 | pIC50 [3]: 6.66 | pIC50 [4]: 7.01

C=CC(=O)N1CCC(N[C@@H]2c3ccc(-n4c(-c5cccnc5N)nc5ccc(-n6cccn6)nc54)cc3CC2F)C[C@H]1C (single isomer, unassigned) [Example 144, 1-((2R,4*)-4-(((1R,2*)-5-(2-(2-aminopyridin-3-yl)-5-(1H-pyrazol-1-yl)-3H-imidazo[4,5-b]pyridin-3-yl)-2-fluoro-2,3-dihydro-1H-inden-1-yl)amino)-2-methylpiperidin-1-yl)prop-2-en-1-one]
pIC50 [1]: 7.13 | pIC50 ([2]; 72 h): 6.53 | pIC50 [3]: 7.59 | pIC50 [4]: 5.93

C=CC(=O)N1CCCc2cccc(C(=O)N[C@H]3CCc4cc(-n5c(-c6cccnc6N)nc6ccc(-n7cccn7)nc65)ccc43)c21 [Example 40, N-[(1S)-5-[2-(2-aminopyridin-3-yl)-5-(pyrazol-1-yl)imidazo[4,5-b]pyridin-3-yl]-2,3-dihydro-1H-inden-1-yl]-1-(prop-2-enoyl)-3,4-dihydro-2H-quinoline-8-carboxamide]
pIC50 [1]: 7.03 | pIC50 ([2]; Homo sapiens, LAPC4, 72 h): 6.02 | pIC50 [3]: 7.32 | pIC50 [4]: 6.58

Nc1ncccc1-c1nc2ccc(-n3cccn3)nc2n1-c1ccc2c(c1)CC[C@@H]2NC1CCN(C(=O)CCl)CC1 [Example 197, 1-(4-{[(1S)-5-[2-(2-aminopyridin-3-yl)-5-(pyrazol-1-yl)imidazo[4,5-b]pyridin-3-yl]-2,3-dihydro-1H-inden-1-yl]amino}piperidin-1-yl)-2-chloroethanone]
pIC50 [1]: 7.72 | pIC50 ([2]; Homo sapiens, LAPC4, 72 h): 6.33 | pIC50 [3]: 6.92 | pIC50 [4]: 7.54

C=CC(=O)N1CCC(N[C@@H]2c3ccc(-n4c(-c5cccnc5N)nc5ccc(-n6cccn6)nc54)cc3CC2F)C[C@H]1C (single isomer, unassigned) [Example 143, 1-((2R,4*)-4-(((1R,2*)-5-(2-(2-aminopyridin-3-yl)-5-(1H-pyrazol-1-yl)-3H-imidazo[4,5-b]pyridin-3-yl)-2-fluoro-2,3-dihydro-1H-inden-1-yl)amino)-2-methylpiperidin-1-yl)prop-2-en-1-one]
pIC50 [1]: 6.45 | pIC50 ([2]; Homo sapiens, LAPC4, 72 h): 6.30 | pIC50 [3]: 7.22 | pIC50 [4]: 5.90

C=CC(=O)N1CCCC(N[C@H]2CCc3cc(-n4c(-c5cccnc5N)nc5ccc(-n6cccn6)nc54)ccc32)C1 (single isomer, unassigned) [Example 124, 1-[(3*)-3-{[(1S)-5-[2-(2-aminopyridin-3-yl)-5-(pyrazol-1-yl)imidazo[4,5-b]pyridin-3-yl]-2,3-dihydro-1H-inden-1-yl]amino}piperidin-1-yl]prop-2-en-1-one]
pIC50 [1]: 7.00 | pIC50 ([2]; 72 h): 5.31 | pIC50 [3]: 7.27 | pIC50 [4]: 5.95

C=CC(=O)N1CCC(N[C@@H]2c3ccc(-n4c(-c5cccnc5N)nc5ccc(-n6ccc(F)n6)nc54)cc3CC2F)C[C@@H]1C (single isomer, unassigned) [Example 272, 1-((2S,4*)-4-(((1R,2*)-5-(2-(2-aminopyridin-3-yl)-5-(3-fluoro-1H-pyrazol-1-yl)-3H-imidazo[4,5-b]pyridin-3-yl)-2-fluoro-2,3-dihydro-1H-inden-1-yl)amino)-2-methylpiperidin-1-yl)prop-2-en-1-one]
pIC50 [1]: 7.63 | pIC50 ([2]; 72 h): 6.45 | pIC50 [3]: 5.91 | pIC50 [4]: 7.04

C=CC(=O)N1CCC(N[C@@H]2c3ccc(-n4c(-c5cccnc5N)nc5ccc(-n6cccn6)nc54)cc3CC2F)C(C)C1 (single isomer, unassigned) [Example 289, 1-[(3*,4*)-4-{[(1R,2*)-5-[2-(2-aminopyridin-3-yl)-5-(pyrazol-1-yl)imidazo[4,5-b]pyridin-3-yl]-2-fluoro-2,3-dihydro-1H-inden-1-yl]amino}-3-methylpiperidin-1-yl]prop-2-en-1-one]
pIC50 [1]: 7.71 | pIC50 ([2]; 72 h): 6.17 | pIC50 [3]: 6.10 | pIC50 [4]: 6.84

C=CC(=O)N1CCC(N[C@H]2CCc3cc(-n4c(-c5cccnc5N)nc5ccc(-n6cccn6)nc54)ccc32)C(C#N)C1 (single isomer, unassigned) [Example 156, (3*,4*)-1-acryloyl-4-(((S)-5-(2-(2-aminopyridin-3-yl)-5-(1H-pyrazol-1-yl)-3H-imidazo[4,5-b]pyridin-3-yl)-2,3-dihydro-1H-inden-1-yl)amino)piperidine-3-carbonitrile]
pIC50 [1]: 7.95 | pIC50 ([2]; 72 h): 7.52 | pIC50 [3]: 8.01 | pIC50 [4]: 7.19

C=CC(=O)N1C[C@H]2C[C@@H]1CC2N[C@H]1CCc2cc(-n3c(-c4cccnc4N)nc4ccc(-n5cccn5)nc43)ccc21 (single isomer, unassigned) [Example 138, 1-[(1R,4R,5*)-5-{[(1S)-5-[2-(2-aminopyridin-3-yl)-5-(pyrazol-1-yl)imidazo[4,5-b]pyridin-3-yl]-2,3-dihydro-1H-inden-1-yl]amino}-2-azabicyclo[2.2.1]heptan-2-yl]prop-2-en-1-one]
pIC50 [1]: 6.13 | pIC50 ([2]; 72 h): 6.02 | pIC50 [3]: 6.54 | pIC50 [4]: 5.74
